# Experiments:
# Test in all cases: biochemical
# Design in all cases: KinomeScan competition binding panel (DiscoveRx), percent of control at 1 uM
# Conditions in all cases: read-out: Percent Control
# [1] = molecular target: T1, ABL1(H396P)-nonphosphorylated (Homo sapiens, UniProt P00519, H396P)
# T1 construct: nonphosphorylated
# Outline: (§1)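 KinomeScan technology used to profile binding across a panel of 456 kinases and mutants.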
# ACVR1B = ACVR1B (Homo sapiens, UniProt P36896)
# Outline: as §1
# ALK(C1156Y) = ALK(C1156Y) (Homo sapiens, UniProt Q9UM73, C1156Y)
# Outline: as §1
# ARK5 = molecular target: T2, ARK5 (Homo sapiens, UniProt O60285)
# T2 construct: gene NUAK1
# Outline: as §1
# BMPR1B = BMPR1B (Homo sapiens, UniProt O00238)
# Outline: as §1
# CAMK1 = CAMK1 (Homo sapiens, UniProt Q14012)
# Outline: as §1
# CDK3 = CDK3 (Homo sapiens, UniProt Q00526)
# Outline: as §1
# CHEK2 = CHEK2 (Homo sapiens, UniProt O96017)
# Outline: as §1
# ERBB3 = ERBB3 (Homo sapiens, UniProt P21860)
# Outline: as §1
# FLT3(K663Q) = FLT3(K663Q) (Homo sapiens, UniProt P36888, K663Q)
# Outline: as §1
# KIT = KIT (Homo sapiens, UniProt P10721)
# Outline: as §1
# KIT(L576P) = KIT(L576P) (Homo sapiens, UniProt P10721, L576P)
# Outline: as §1
# LIMK1 = LIMK1 (Homo sapiens, UniProt P53667)
# Outline: as §1
# MAP3K3 = MAP3K3 (Homo sapiens, UniProt Q99759)
# Outline: as §1
# MAP3K4 = MAP3K4 (Homo sapiens, UniProt Q9Y6R4)
# Outline: as §1
# MRCKB = molecular target: T3, MRCKB (Homo sapiens, UniProt Q9Y5S2)
# T3 construct: gene CDC42BPB
# Outline: as §1
# MYO3B = MYO3B (Homo sapiens, UniProt Q8WXR4)
# Outline: as §1
# PLK3 = PLK3 (Homo sapiens, UniProt Q9H4B4)
# Outline: as §1
# RET = RET (Homo sapiens, UniProt P07949)
# Outline: as §1
# RIPK1 = RIPK1 (Homo sapiens, UniProt Q13546)
# Outline: as §1
# ROS1 = ROS1 (Homo sapiens, UniProt P08922)
# Outline: as §1
# SGK2 = SGK2 (Homo sapiens, UniProt Q9HBY8)
# Outline: as §1
# SIK2 = SIK2 (Homo sapiens, UniProt Q9H0K1)
# Outline: as §1
# SgK110 = molecular target: T4, SgK110 (Homo sapiens, UniProt P0C264)
# T4 construct: gene SBK3
# Outline: as §1
# p38-beta = molecular target: T5, p38-beta (Homo sapiens, UniProt Q15759)
# T5 construct: gene MAPK11
# Outline: as §1
# Sequence of ACVR1B (P36896 whole entry): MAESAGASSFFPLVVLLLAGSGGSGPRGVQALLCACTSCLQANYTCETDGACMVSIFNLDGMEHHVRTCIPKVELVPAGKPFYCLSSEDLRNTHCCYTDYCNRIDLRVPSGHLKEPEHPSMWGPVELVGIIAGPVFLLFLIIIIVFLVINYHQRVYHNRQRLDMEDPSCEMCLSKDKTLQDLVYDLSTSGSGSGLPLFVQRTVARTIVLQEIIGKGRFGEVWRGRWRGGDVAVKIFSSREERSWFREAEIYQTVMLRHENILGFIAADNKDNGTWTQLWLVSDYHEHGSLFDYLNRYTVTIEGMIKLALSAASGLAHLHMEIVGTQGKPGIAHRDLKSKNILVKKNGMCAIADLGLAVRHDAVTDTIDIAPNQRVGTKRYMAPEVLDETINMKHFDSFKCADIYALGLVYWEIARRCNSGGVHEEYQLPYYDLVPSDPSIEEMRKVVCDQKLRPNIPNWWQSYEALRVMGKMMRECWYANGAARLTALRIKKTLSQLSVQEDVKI
# Sequence of PLK3 (Q9H4B4 whole entry): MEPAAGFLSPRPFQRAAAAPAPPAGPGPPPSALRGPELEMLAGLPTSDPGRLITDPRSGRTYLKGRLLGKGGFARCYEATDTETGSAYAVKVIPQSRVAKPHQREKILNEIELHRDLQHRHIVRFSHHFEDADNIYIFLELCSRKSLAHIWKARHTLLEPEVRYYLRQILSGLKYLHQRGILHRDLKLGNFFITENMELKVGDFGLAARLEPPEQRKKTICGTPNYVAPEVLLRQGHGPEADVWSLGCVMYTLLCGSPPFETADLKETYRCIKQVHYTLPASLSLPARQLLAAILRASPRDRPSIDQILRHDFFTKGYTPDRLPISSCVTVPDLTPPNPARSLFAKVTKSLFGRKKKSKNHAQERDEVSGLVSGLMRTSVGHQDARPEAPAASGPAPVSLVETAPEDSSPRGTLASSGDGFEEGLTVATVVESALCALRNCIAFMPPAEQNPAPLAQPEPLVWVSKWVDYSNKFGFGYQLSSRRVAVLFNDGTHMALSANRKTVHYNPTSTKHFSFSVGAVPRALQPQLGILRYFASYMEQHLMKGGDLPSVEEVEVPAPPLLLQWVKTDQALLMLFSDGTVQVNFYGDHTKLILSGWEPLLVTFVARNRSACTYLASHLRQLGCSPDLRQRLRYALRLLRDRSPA
# T2 sequence (O60285 whole entry): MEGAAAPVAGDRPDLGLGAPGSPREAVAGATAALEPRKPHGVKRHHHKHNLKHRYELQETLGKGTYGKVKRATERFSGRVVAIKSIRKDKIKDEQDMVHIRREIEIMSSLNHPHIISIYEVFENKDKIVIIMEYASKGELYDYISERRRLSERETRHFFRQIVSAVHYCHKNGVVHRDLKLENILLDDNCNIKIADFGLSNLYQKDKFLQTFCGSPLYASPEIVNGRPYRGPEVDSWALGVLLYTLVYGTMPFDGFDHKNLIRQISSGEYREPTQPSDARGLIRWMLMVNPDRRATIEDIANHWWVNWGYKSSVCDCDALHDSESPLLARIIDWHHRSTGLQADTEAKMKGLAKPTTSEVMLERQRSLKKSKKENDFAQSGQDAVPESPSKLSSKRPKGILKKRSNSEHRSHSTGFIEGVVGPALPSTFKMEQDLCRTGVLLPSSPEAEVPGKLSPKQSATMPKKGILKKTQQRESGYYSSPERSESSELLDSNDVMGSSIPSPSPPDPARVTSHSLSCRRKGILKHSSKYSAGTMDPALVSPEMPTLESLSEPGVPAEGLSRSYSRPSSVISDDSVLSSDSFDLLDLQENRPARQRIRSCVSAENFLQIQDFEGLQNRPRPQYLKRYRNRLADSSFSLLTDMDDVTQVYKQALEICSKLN
# Sequence of CHEK2 (O96017 whole entry): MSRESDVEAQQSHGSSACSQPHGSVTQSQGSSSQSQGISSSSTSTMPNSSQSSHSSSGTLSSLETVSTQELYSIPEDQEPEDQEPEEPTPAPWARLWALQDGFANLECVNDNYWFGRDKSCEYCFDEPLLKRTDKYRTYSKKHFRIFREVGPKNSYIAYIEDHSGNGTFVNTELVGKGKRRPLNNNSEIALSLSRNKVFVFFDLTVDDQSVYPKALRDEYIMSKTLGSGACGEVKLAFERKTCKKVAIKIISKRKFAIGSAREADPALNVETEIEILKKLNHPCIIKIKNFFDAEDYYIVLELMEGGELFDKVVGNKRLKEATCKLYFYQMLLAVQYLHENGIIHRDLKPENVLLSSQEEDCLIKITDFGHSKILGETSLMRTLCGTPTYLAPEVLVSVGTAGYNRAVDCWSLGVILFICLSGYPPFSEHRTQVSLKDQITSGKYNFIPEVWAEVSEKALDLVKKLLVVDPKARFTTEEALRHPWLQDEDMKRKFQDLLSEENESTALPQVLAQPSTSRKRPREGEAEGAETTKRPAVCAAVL
# Sequence of RET (P07949 whole entry): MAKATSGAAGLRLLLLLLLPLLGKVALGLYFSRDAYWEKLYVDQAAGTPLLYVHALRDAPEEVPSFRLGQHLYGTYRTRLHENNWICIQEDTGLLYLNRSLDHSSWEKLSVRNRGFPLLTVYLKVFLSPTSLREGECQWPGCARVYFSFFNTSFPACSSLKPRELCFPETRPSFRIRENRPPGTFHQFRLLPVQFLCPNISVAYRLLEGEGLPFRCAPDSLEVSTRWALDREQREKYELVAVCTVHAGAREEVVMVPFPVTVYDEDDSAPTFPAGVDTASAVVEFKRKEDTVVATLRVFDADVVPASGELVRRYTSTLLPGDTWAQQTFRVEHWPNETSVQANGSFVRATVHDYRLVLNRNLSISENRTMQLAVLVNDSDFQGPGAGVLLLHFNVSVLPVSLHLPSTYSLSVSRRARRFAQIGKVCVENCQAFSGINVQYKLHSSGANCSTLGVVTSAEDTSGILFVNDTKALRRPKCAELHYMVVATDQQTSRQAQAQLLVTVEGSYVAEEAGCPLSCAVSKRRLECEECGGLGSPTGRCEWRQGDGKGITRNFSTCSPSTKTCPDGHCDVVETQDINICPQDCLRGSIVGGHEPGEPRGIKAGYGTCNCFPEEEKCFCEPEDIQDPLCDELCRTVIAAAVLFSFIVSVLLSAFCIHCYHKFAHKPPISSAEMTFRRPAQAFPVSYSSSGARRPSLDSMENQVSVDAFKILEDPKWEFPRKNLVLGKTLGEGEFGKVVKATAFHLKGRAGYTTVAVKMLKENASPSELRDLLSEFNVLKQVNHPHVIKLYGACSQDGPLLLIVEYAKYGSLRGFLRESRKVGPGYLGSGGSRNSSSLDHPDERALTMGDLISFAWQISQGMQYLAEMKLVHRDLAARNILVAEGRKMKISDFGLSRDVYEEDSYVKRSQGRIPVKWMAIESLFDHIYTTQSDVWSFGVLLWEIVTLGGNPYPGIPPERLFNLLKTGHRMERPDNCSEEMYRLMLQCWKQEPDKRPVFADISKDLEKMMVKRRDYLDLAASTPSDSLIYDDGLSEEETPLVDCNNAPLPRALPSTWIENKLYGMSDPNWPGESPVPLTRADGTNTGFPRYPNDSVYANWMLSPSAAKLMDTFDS
# Sequence of CAMK1 (Q14012 whole entry): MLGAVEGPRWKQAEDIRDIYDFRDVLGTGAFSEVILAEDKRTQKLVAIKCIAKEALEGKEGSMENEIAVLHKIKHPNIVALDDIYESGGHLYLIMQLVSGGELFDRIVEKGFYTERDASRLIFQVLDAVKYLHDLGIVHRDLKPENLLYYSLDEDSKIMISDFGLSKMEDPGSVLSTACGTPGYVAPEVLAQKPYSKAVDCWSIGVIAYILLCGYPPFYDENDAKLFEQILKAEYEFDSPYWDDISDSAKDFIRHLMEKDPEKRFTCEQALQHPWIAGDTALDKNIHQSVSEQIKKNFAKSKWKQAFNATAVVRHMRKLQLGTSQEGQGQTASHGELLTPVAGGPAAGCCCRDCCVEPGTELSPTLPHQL
# Sequence of KIT (P10721 whole entry): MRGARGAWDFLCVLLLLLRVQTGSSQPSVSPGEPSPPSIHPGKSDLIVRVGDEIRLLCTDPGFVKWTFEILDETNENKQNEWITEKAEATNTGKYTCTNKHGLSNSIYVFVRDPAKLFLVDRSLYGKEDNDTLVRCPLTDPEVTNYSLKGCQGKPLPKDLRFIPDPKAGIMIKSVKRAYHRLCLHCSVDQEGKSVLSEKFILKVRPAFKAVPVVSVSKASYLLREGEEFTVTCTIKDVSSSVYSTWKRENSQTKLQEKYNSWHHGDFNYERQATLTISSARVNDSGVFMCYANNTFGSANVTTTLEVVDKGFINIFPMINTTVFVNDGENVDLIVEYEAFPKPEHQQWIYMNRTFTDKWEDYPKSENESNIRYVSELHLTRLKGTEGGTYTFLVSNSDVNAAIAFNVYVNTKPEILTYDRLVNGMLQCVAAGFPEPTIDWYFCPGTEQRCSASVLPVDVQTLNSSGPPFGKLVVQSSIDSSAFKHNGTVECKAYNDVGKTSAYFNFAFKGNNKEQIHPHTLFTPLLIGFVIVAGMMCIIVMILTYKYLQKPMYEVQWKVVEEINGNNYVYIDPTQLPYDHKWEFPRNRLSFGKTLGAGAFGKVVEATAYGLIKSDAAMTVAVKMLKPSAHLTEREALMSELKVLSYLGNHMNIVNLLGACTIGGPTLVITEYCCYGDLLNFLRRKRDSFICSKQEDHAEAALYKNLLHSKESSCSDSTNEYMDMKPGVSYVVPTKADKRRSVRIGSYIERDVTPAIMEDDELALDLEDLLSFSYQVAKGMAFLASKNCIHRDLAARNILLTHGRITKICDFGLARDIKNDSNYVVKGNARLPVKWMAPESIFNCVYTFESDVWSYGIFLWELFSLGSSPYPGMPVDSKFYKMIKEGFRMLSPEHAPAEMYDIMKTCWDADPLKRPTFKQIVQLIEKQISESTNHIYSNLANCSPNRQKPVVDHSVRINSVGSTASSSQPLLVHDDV
# Sequence of KIT(L576P) (P10721 whole entry L576P): as the sequence (P10721 whole entry) above, with L576P counted along it
smiles,measurement,setting,value
C=CC(=O)Nc1cc(-n2c(=O)ccc3cnc4ccc(-n5cccn5)cc4c32)ccc1C [CHMFL-BTK-11],remaining binding at 1 µM,[1],100%
same,remaining binding at 1 µM,ACVR1B,100%
same,remaining binding at 1 µM,ALK(C1156Y),94%
same,remaining binding at 1 µM,ARK5,100%
same,remaining binding at 1 µM,BMPR1B,97%
same,remaining binding at 1 µM,CAMK1,98%
same,remaining binding at 1 µM,CDK3,100%
same,remaining binding at 1 µM,CHEK2,100%
same,remaining binding at 1 µM,ERBB3,90%
same,remaining binding at 1 µM,FLT3(K663Q),100%
same,remaining binding at 1 µM,KIT,100%
same,remaining binding at 1 µM,KIT(L576P),100%
same,remaining binding at 1 µM,LIMK1,100%
same,remaining binding at 1 µM,MAP3K3,100%
same,remaining binding at 1 µM,MAP3K4,97%
same,remaining binding at 1 µM,MRCKB,100%
same,remaining binding at 1 µM,MYO3B,90%
same,remaining binding at 1 µM,PLK3,100%
same,remaining binding at 1 µM,RET,100%
same,remaining binding at 1 µM,RIPK1,90%
same,remaining binding at 1 µM,ROS1,94%
same,remaining binding at 1 µM,SGK2,85%
same,remaining binding at 1 µM,SIK2,98%
same,remaining binding at 1 µM,SgK110,90%
same,remaining binding at 1 µM,p38-beta,100%

# Source: PMC5428509, “Irreversible inhibition of BTK kinase by a novel highly selective inhibitor CHMFL-BTK-11 suppresses inflammatory response in rheumatoid arthritis model” (Scientific Reports, 2017)
